From ChEMBL document CHEMBL1201862, “PubChem BioAssay data set” (2004)
The source made the active and inactive calls.

Legend:
[1] = target: 5-hydroxytryptamine receptor 2A (Mus musculus, UniProt P35363); assay type: functional, cell-based;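 note: CHO-K1 cells with tagged receptor and beta-arrestin; agonist potency measured as compound-induced activation of the receptor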
Mu-type opioid receptor = Mu-type opioid receptor (Homo sapiens, UniProt P35372); assay type: functional, cell-based;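 note: U2OS cells with beta-arrestin recruitment to OPRM1 by beta-gal complementation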
[2] = target: Photoreceptor-specific nuclear receptor (Homo sapiens, UniProt Q9Y5X4); assay type: functional, cell-based;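 note: CHO-S cells with Gal4-NCOR and VP16-NR2E3 two-hybrid luciferase reporter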
INS1 = experiment: INS-1E survival protection against cytokine death – cell-based, luminescence, retest, dose response (AID 449756); assay type: functional; settings: Rattus norvegicus;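 note: cell death triggered by IL-1 beta plus TNF-alpha plus IFN-gamma mixture; protective hits raise ATP signal compared with cytokine alone wells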
Major prion protein = Major prion protein (Homo sapiens, UniProt P04156); assay type: functional, cell-based
[3] = target: T1, High affinity choline transporter 1 (Homo sapiens, UniProt Q9GZV3); experiment: human choline transporter blockers, potency – cell-based, 10-point CRC, membrane potential dye, dose response (AID 588401); assay type: functional;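 note: membrane potential dye fluorescence of choline-evoked depolarization via CHT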
T1 sequence (Q9GZV3 whole entry): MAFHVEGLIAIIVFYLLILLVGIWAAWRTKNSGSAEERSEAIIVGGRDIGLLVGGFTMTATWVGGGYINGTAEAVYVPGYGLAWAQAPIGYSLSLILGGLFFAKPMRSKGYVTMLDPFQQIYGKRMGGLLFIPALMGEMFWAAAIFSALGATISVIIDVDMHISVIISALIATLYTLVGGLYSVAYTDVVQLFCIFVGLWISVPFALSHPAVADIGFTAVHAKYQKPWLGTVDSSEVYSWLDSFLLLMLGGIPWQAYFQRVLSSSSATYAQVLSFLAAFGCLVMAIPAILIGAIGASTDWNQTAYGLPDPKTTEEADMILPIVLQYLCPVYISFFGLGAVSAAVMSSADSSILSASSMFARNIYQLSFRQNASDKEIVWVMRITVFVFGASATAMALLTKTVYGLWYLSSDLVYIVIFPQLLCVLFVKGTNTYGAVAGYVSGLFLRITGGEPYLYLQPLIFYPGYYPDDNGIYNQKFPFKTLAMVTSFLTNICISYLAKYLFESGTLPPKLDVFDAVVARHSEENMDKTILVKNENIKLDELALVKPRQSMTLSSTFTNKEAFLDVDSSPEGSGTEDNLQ

[4] = target: T1, High affinity choline transporter 1; experiment: human choline transporter blockers, potency – cell-based, 5-point CRC, membrane potential dye, dose response (AID 504840); assay type: functional
[5] = target: T2, Small ubiquitin-related modifier 1 (Homo sapiens, UniProt P63165); experiment: SUMO1 protein-protein binding blockers, potency – biochemical, FRET, dose response (AID 624383); assay type: functional; settings: read-out: IC50_Mean
[6] = target: T2, Small ubiquitin-related modifier 1; experiment: SUMO1 protein interaction blockers, potency – biochemical, fluorescence polarization, uHTS hits, dose response (AID 624382); assay type: functional; settings: read-out: IC50_Mean
[7] = target: T3, Probable nicotinate-nucleotide adenylyltransferase (Staphylococcus aureus (strain N315), UniProt P65502); assay type: functional, Staphylococcus aureus subsp. aureus N315;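 for IC50 Mean: confirmatory dose-response retesting of NadD inhibitor hits first found in an ultra-high-throughput screen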
[8] = target: T4, Zinc finger protein mex-5 (Caenorhabditis elegans, UniProt Q9XUB2); experiment: potency of MEX-5 RNA-binding blockers – biochemical, C. elegans, fluorescence polarization, dose response (AID 1960)
T4 sequence (Q9XUB2 whole entry): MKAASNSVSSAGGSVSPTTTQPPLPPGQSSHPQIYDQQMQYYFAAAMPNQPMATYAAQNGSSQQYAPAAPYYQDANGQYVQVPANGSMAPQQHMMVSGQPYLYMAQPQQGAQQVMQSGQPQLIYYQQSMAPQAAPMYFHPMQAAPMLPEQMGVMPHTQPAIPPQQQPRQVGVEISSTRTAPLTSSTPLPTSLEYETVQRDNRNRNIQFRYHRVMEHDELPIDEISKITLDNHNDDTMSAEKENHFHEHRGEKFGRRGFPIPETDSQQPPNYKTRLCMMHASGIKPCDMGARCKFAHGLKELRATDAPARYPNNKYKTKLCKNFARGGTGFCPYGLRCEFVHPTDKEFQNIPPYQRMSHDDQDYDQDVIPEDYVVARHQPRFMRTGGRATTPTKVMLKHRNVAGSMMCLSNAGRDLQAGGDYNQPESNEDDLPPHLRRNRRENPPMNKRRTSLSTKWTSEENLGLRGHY

[9] = target: T3, Probable nicotinate-nucleotide adenylyltransferase; assay type: functional, Staphylococcus aureus subsp. aureus N315; settings: read-out: IC50_Mean
[10] = target: T5, RNA-binding protein pos-1 (Caenorhabditis elegans, UniProt G5EF15); experiment: disruptors of C. elegans POS-1 RNA interaction – biochemical, fluorescence polarization, dose response (AID 1964);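 note: purified POS-1 fused to maltose binding protein made in E. coli; potency of compounds blocking POS-1 binding to fluorescent RNA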
T5 sequence (G5EF15 whole entry): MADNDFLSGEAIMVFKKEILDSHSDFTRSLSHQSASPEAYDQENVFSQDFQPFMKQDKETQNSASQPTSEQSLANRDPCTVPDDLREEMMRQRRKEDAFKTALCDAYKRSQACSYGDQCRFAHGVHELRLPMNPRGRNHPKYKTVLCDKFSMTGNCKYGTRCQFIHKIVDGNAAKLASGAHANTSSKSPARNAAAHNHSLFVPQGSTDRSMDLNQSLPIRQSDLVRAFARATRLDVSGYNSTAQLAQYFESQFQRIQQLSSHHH

Beta-lactamase [11] = target: Beta-lactamase (Salmonella choleraesuis (strain SC-B67), UniProt Q5J463)
Beta-lactamase [12] = target: Beta-lactamase (Pseudomonas aeruginosa, UniProt Q79MP6);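 note: biochemical dose-response test of metallo-beta-lactamase enzyme inhibition, read out by epi-absorbance; purified recombinant IMP-1 metallo-beta-lactamase with nitrocefin as substrate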
[13] = target: T6, Carboxy-terminal domain RNA polymerase II polypeptide A small phosphatase 1 (Homo sapiens, UniProt Q9GZU7); experiment: CTDSP1 inhibitors, concentration-response, biochemical, absorbance readout, ultra-high-throughput screen actives (AID 540297); assay type: functional
T6 sequence (Q9GZU7 whole entry): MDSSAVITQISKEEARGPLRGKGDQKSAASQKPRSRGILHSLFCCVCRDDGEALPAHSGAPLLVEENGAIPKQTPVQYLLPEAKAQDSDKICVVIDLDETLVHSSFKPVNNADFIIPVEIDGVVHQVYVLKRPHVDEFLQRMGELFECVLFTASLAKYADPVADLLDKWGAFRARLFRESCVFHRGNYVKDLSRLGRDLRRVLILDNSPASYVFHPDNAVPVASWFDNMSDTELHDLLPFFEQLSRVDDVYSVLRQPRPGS

Cytochrome P450 2C9 = Cytochrome P450 2C9 (Homo sapiens, UniProt P11712)
[14] = target: DNA (cytosine-5)-methyltransferase 1 (Homo sapiens, UniProt P26358); experiment: inhibition of DNA methylation by DNMT1 – biochemical, fluorescent molecular beacon, confirmation (AID 602386); assay type: functional
Genome polyprotein = Genome polyprotein (dengue virus type 2, UniProt P29990); experiment: flavivirus cap methylation enzyme inhibition – biochemical, confirmation dose response, primary screen (AID 588689); assay type: functional
[15] = toxicity toward HepG2 liver cells – cell-based, plate reader, cherry-pick, antagonist series, cytotoxicity control, dose response (AID 743416); assay type: functional
H9c2 = experiment: cells; assay type: functional, cell-based; settings: Rattus norvegicus, H9c2, Myocardium
[16] = target: T7, ATP-dependent translocase ABCB1 (Homo sapiens, UniProt P08183); experiment: inhibition of BCRP-mediated JC-1 efflux – Ig-MXP3 cells, flow cytometry, set 2, dose response (AID 504566); assay type: functional; settings: read-out: EC50_MICROM_;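 note: flow cytometry median green fluorescence of retained JC-1 dye; potency of efflux pump inhibition measured as rising substrate retention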
[17] = target: T8, COUP transcription factor 2 (Homo sapiens, UniProt P24468); experiment: Luminescence-based cell-based high throughput dose response assay to identify inhibitors of COUP-TFII (NR2F2).; assay type: functional;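 note: HEK293 cells transiently cotransfected with COUP-TFII expression vector and reporter; luciferase reporter luminescence driven by COUP-TFII from the pX2-168 reporter plasmid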
T8 sequence (P24468 whole entry): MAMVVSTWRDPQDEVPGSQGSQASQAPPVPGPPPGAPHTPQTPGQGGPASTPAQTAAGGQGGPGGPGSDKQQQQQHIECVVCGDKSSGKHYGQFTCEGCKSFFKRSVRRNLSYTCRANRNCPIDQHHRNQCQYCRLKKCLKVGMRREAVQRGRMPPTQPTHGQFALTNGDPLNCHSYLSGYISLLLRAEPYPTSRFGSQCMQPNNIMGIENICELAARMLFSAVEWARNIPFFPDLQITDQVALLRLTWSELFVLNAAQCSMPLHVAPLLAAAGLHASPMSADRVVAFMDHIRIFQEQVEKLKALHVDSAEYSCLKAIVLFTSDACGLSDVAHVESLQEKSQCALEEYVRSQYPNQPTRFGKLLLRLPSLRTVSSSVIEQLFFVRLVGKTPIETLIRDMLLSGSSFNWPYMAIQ

[18] = target: T7, ATP-dependent translocase ABCB1; experiment: P-gp JC-1 efflux blockade concentration-response – Jurkat-DNR cells, flow cytometry, set 2, dose response (AID 504569); assay type: functional; settings: read-out: EC50_MICROM_;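 note: potency of pump inhibitors that raise cellular JC-1 green fluorescence up to the nicardipine level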
[19] = A549 cell cytotoxicity, dose response, cytotoxicity control, plate reader, cherry-pick, antagonist series (AID 743412); assay type: functional, cell-based
[20] = blockade of melanocortin 4 receptor signaling – cell-based, plate reader, cherry pick, counter-screen for LGR2 antagonist project, dose response (AID 743444); assay type: functional;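 note: transfected HEK 293 cells stimulated with alpha-MSH peptide; potency of inhibitors of the alpha-MSH evoked signal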
[21] = viability loss in HEK293 cells – cell-based, plate reader, cherry-picked samples, cytotoxicity control, dose response (AID 743446); assay type: functional
[22] = blockers of bursicon-stimulated LGR2 cAMP reporter – cell-based, HEK293, CRE-luciferase reporter, cherry pick, set 2, dose response (AID 743343); assay type: functional;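 note: transfected cells were stimulated with diluted bursicon conditioned medium after compound addition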
[23] = activation of miR-122 Renilla sensor silencing – cell-based, Huh7 psiCHECK-miR122, Renilla luciferase, cherry-picked, dose response (AID 651956); assay type: functional;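 note: huh7 hepatoma cells stably carrying a psiCHECK-2 miR-122 sensor plasmid; renilla luciferase signal reporting endogenous miR-122 activity after 48 h compound exposure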
[24] = intracellular Trypanosoma cruzi inhibitors in host cells – cell-based, plate reader, cherry-pick samples, set 3, dose response (AID 651818); assay type: functional;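 note: compounds incubated with infected cells for about four days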
Paired box protein Pax-8 = Paired box protein Pax-8 (Homo sapiens, UniProt Q06710); experiment: PAX8 transcriptional activity inhibition in RMG-I – RMG-I cells, luciferase, cherry-pick, dose response (AID 687027); assay type: functional, cell-based;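 note: luciferase reporter driven by Pax8 target thyroperoxidase promoter measured by SteadyGlo luminescence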
[25] = IGROV1 cell killing – plate reader, dry powder samples, PAX8 inhibitor project, dose response (AID 743043); assay type: functional, cell-based; settings: IGROV-1
[26] = OVCAR8 cell viability loss – plate reader, dry powder samples, PAX8 project, dose response (AID 743197); assay type: functional, cell-based; settings: OVCAR-8
[27] = OVCAR-3 cell viability loss – plate reader, dry powder samples, PAX8 inhibitor project, dose response (AID 743044); assay type: functional, cell-based
[28] = T. cruzi growth inhibition in host cells, dose response, cell-based, plate reader, dry powder, set 2 (AID 652275); assay type: functional

## CCCN(CCC)C1CCc2ccc(O)cc2C1 (stereo not drawn)
[1]
  EC50: 0.0038 µM (active)
Mu-type opioid receptor
  EC50: 92.4 µM (inactive)

## O=[N+]([O-])c1ccc(NC(S)=NCCc2ccc(F)cc2)cc1
[2]
  IC50: 5.06 µM (active)
INS1
  AC50: 6.89 µM (active)

## Cn1c(=O)c(C(=O)CSc2nncs2)c(N)n(Cc2ccccc2)c1=O
Major prion protein
  IC50: 8.53 µM (active)
cells
  IC50: > 138 µM (inactive)

## CCc1ccc(C(C)N=C(S)NC2CCCCC2)cc1 (stereo not drawn)
[3]
  IC50: 11.2 µM (active)
[4]
  IC50: 7.86 µM (active)

## COc1ccc(OC)c(Nc2nc3ccccc3n3cnnc23)c1
[5]
  IC50: 19.2 µM (active)
[6]
  IC50: > 66.6 µM (inactive)

## CCCCC1=CC2=CC(=O)C(C)(OC(=O)c3cccs3)C(=O)C2=CO1 (stereo not drawn)
[7]
  IC50: 10.9 µM (active)
[8]
  EC50: 30.9 µM (active)
[9]
  IC50: 34.4 µM (active)
[10]
  EC50: 35.4 µM (active)

## Cc1nn(-c2ccccc2)c(Cl)c1/C=C(\CC(=O)O)c1nc2ccccc2s1
Beta-lactamase [11]
  IC50: > 59.6 µM (inactive)
Beta-lactamase [12]
  IC50: > 59.6 µM (inactive)

## Cc1ccc(-c2nc(NC(=O)CSc3nnnn3-c3ccccc3)ns2)cc1
[2]
  IC50: 1.06 µM (active)

## CCOC(=O)c1c(NC(=O)COC(=O)c2ccc(NC(=O)CC#N)cc2)sc(C(=O)NC)c1C
[5]
  IC50: 6.69 µM (active)
[13]
  IC50: 3.43 µM (active)
[6]
  IC50: > 66.6 µM (inactive)

## NC(=O)CC(NC(=O)c1ccccc1)c1ccc(N2CCCCCCC2)c([N+](=O)[O-])c1 (stereo not drawn)
[3]
  IC50: 6.21 µM (active)
[4]
  IC50: 6.41 µM (active)

## CC(=O)NN1C(=O)c2ccc(Oc3cccc([N+](=O)[O-])c3)cc2C1=O
[3]
  IC50: 4.5 µM (active)
Cytochrome P450 2C9
  AC50: 31.6 µM (inconclusive)
[4]
  IC50: 9.92 µM (active)

## Nc1ccc(S(=O)(=O)Nc2nccs2)cc1N=Nc1ccccc1[N+](=O)[O-]
[14]
  IC50: 7.09 µM (active)
Genome polyprotein
  IC50: 64.7 µM (active)

## COC(=O)C1CCN(CC(=O)Nc2ccc3c(c2)OCCO3)CC1
[1]
  EC50: 76.1 µM (inactive)
Mu-type opioid receptor
  EC50: 92.5 µM (inactive)

## COc1ccccc1-c1cc2nc(-c3ccccc3)cc(N3CCN(C(=O)c4ccco4)CC3)n2n1
[15]
  AC50: 2.29 µM (active)
H9c2
  IC50: > 79 µM (inactive)
[16]
  EC50: 0.94 µM (active)
[17]
  IC50: 4.17 µM (active)
[18]
  EC50: 3.41 µM (active)
[19]
  AC50: 7.34 µM (active)
[20]
  AC50: 6.15 µM (active)
[21]
  AC50: 7.31 µM (active)
[22]
  AC50: 6.6 µM (active)

## Cc1nc2cc(-c3cccc(Cl)c3)nn2c(N2CCN(C(=O)c3ccsc3)CC2)c1C
[16]
  EC50: 0.56 µM (active)
[18]
  EC50: 4.62 µM (active)

## CNC(=O)C[C@H]1CC[C@@H]2[C@H](COc3ccc(NC(=O)Nc4ccccc4OC)cc3C(=O)N2C)O1
[23]
  AC50: 23.1 µM (active)

## C[C@H]1CN([C@@H](C)CO)C(=O)Cc2cc(NS(=O)(=O)c3ccc(Cl)cc3)ccc2O[C@@H]1CN(C)Cc1ccc(-c2ccccc2)cc1
[24]
  AC50: 3.8 µM (active)

## C[C@@H]1CCCCO[C@@H](CN(C)Cc2ccc(C(F)(F)F)cc2)[C@@H](C)CN([C@H](C)CO)C(=O)c2cc(NC(=O)Nc3ccc(C(F)(F)F)cc3)ccc2O1
[24]
  AC50: 3.49 µM (active)

## COc1cccc(-c2ccc3c(c2)[C@H]2[C@H](CCN2S(=O)(=O)c2ccccc2OC)[C@@H](CO)N3C)c1
Paired box protein Pax-8
  AC50: 11.1 µM (active)
[25]
  AC50: 34.3 µM (active)
[26]
  AC50: 25.4 µM (active)
[27]
  AC50: 21.6 µM (active)

## Cc1ccccc1-c1ccc([C@H]2[C@H](CO)N3CCCCN(C(=O)CN4CCOCC4)C[C@@H]23)cc1
[28]
  AC50: 0.42 µM (active)
